Assay results taken from patent US11702646B2, “Methods for modulating RNA splicing” (PTC THERAPEUTICS, INC., priority 2016, dated 2023).

Columns and labels:
GM04856 lymphocyte cells = experiment: Endpoint RT-PCR for iExon-containing spliced product in GM04856 lymphocyte cells; assay type: cell-based; details: 10 nM, 1 μM or 10 μM, ~20 h, FIGS. 2A-D and 3-6A
Description: Cell treatment: GM04856 lymphocyte cells were diluted in a medium composed of DMEM, 10% FBS and 1× Pen/Strep to a concentration of 2.5e5 cells/mL. 2 mL (500K cells) were seeded in 6-well plates and recovered for 4 h at 37° C., 5% CO2. Compound dilutions were prepared as 2× compound stock in medium (e.g. for final 100 nM, make a 200 nM stock). After 4 h recovery, 2 mL of the 2× compound stock were added to each well, resulting in 4 mL/well with 1× final compound concentration. The cells were incubated for ˜20 h at 37° C., 5% CO2. After incubation, the cells were pelleted for 5 min at 1000 rpm. The supernatant was vacuum-removed and the cells were resuspended in 350 μl of RLT buffer (w/10 μl/mL beta-mercapto-ethanol, RNeasy kit). Total RNA was isolated using the RNeasy Mini Kit from Qiagen according to the manufacturer's instructions. The concentration of the resulting total RNA was determined using Nanodrop and diluted with water to a final concentration of 25 ng/μL.
Endpoint PCR: 20 μL endpoint RT-PCR5 were set up in 96-well plates using the AgPath-ID One-Step RT-PCR Reagents (Applied Biosystems) according to the manufacturer. Each reaction contained 200 nM forward primer, 200 nM reverse primer, and 50 ng total RNA. […] 10 μL of each RT-PCR reactions were analyzed on 2% 48-well E-Gels (Invitrogen) (pre-run 1 min, run 14 min) and imaged using an BioRad Gel Doc EZ Imager. […]

[1] = tested on: RNA transcripts in HDF cell line; experiment: ΔPSI (iExon production / exon inclusion), FET and Fold Decrease of RNA transcripts in HDF cell line treated at 3 μM; assay type: cell-based; details: for FD HDF: Fold Decrease
Description: Results: The statistically significant value for the likelihood of iExon production (ΔPSI) according to the Fisher's Exact Test (FET) for PNN and HDF cell lines treated with Compound 774 at 3 μM and Fold Decrease (FD) for certain genes tested, where NR represents “Not Reported,” is shown in Table 10.
(§1) The ΔPSI for inclusion of an iExon and resulting modulated expression of RNA transcripts identified is represented by stars, where one star (*) represents ≤25% change in expression, where two stars (**) represent change in expression in a range from <26% to ≤50% change, where three stars (***) represent change in expression in a range from <51% to ≤75% change, and, where four stars (****) represent change in expression in a range from <75% to ≤100% change.
Results: The statistically significant value for the likelihood of exon inclusion (ΔPSI) according to the Fisher's Exact Test (FET) for PNN and HDF cell lines treated with Compound 774 at 3 μM and Fold Decrease (FD) for certain genes tested, where NR represents “Not Reported,” is shown in Table 10a.
as §1, with “exon” for “iExon”

[2] = gene FAM198B, exon e3, HDF cells, 3 μM
[3] = gene PRUNE2, exon e18, HDF cells, 3 μM

CCc1nc(C)cn2nc(-c3cc(=O)n4cc(C5CCN(C)CC5)cc(C)c4n3)cc12 [Compound 774]
PCR product containing the intronic-derived exon (endpoint RT-PCR, agarose gel) (GM04856 lymphocyte cells): appearance of a slower migrating PCR product containing the intronic-derived exon
FD HDF [1, 2]: −0.35
FD HDF [1, 3]: −1.74
ΔPSI (HDF) ([1]; gene APLP2, exon e7, HDF cells, 3 μM): ** (two stars (**) represent change in expression in a range from <26% to ≤50% change)
ΔPSI (HDF) ([1]; gene AXIN1, exon e9, HDF cells, 3 μM): * (one star (*) represents ≤25% change in expression)
ΔPSI (HDF) ([1]; gene CECR7, exon e5, HDF cells, 3 μM): * (one star (*) represents ≤25% change in expression)
ΔPSI (HDF) ([1]; gene DAGLB, exon e4, HDF cells, 3 μM): * (one star (*) represents ≤25% change in expression)
ΔPSI (HDF) ([1]; gene DLGAP4, exon e8, HDF cells, 3 μM): * (one star (*) represents ≤25% change in expression)
ΔPSI (HDF) ([1]; gene ERCC1, exon e8, HDF cells, 3 μM): * (one star (*) represents ≤25% change in expression)
ΔPSI (HDF) ([1]; gene ERGIC3, exon e8, HDF cells, 3 μM): * (one star (*) represents ≤25% change in expression)
ΔPSI (HDF) [1, 2]: * (one star (*) represents ≤25% change in expression)
ΔPSI (HDF) ([1]; gene GGCT, exon e2, HDF cells, 3 μM): ** (two stars (**) represent change in expression in a range from <26% to ≤50% change)
ΔPSI (HDF) ([1]; gene HAT1, exon e3, HDF cells, 3 μM): * (one star (*) represents ≤25% change in expression)
ΔPSI (HDF) ([1]; gene HPS1, exon e5, HDF cells, 3 μM): * (one star (*) represents ≤25% change in expression)
ΔPSI (HDF) ([1]; gene INPP5K, exon e2, HDF cells, 3 μM): * (one star (*) represents ≤25% change in expression)
ΔPSI (HDF) ([1]; gene MADD, exon e21, HDF cells, 3 μM): * (one star (*) represents ≤25% change in expression)
ΔPSI (HDF) ([1]; gene PPHLN1, exon e3, HDF cells, 3 μM): ** (two stars (**) represent change in expression in a range from <26% to ≤50% change)
ΔPSI (HDF) [1, 3]: ** (two stars (**) represent change in expression in a range from <26% to ≤50% change)
ΔPSI (HDF) ([1]; gene RAP1A, exon e2, HDF cells, 3 μM): * (one star (*) represents ≤25% change in expression)
ΔPSI (HDF) ([1]; gene RNFT1, exon e3, HDF cells, 3 μM): * (one star (*) represents ≤25% change in expression)
ΔPSI (HDF) ([1]; gene RPS6KB2, exon e2, HDF cells, 3 μM): * (one star (*) represents ≤25% change in expression)
ΔPSI (HDF) ([1]; gene SH3YL1, exon e9, HDF cells, 3 μM): * (one star (*) represents ≤25% change in expression)
ΔPSI (HDF) ([1]; gene SKA2, exon e3, HDF cells, 3 μM): * (one star (*) represents ≤25% change in expression)
ΔPSI (HDF) ([1]; gene SPATA18, exon e4, HDF cells, 3 μM): * (one star (*) represents ≤25% change in expression)
ΔPSI (HDF) ([1]; gene STRN3, exon e8, HDF cells, 3 μM): *** (three stars (***) represent change in expression in a range from <51% to ≤75% change)
ΔPSI (HDF) ([1]; gene TMEM189-UBE2V1, exon e6, HDF cells, 3 μM): * (one star (*) represents ≤25% change in expression)
ΔPSI (HDF) ([1]; gene TRIM65, exon e5, HDF cells, 3 μM): ** (two stars (**) represent change in expression in a range from <26% to ≤50% change)
ΔPSI (HDF) ([1]; gene TUBE1, exon e4, HDF cells, 3 μM): * (one star (*) represents ≤25% change in expression)
ΔPSI (HDF) ([1]; gene UBE2V1, exon e3, HDF cells, 3 μM): * (one star (*) represents ≤25% change in expression)
ΔPSI (HDF) ([1]; gene VPS29, exon e2, HDF cells, 3 μM): ** (two stars (**) represent change in expression in a range from <26% to ≤50% change)
ΔPSI (HDF) ([1]; gene ZFP82, iExon inclusion position i4, HDF cell line, Compound 774 at 3 μM): ** (two stars (**) represent change in expression in a range from <26% to ≤50% change)
ΔPSI (HDF) ([1]; gene ZNF37BP, iExon inclusion position i4, HDF cell line, Compound 774 at 3 μM): *** (three stars (***) represent change in expression in a range from <51% to ≤75% change)
ΔPSI (HDF) ([1]; gene ZNF138, iExon inclusion position i3, HDF cell line, Compound 774 at 3 μM): * (one star (*) represents ≤25% change in expression)
ΔPSI (HDF) ([1]; gene ZNF232, iExon inclusion position i4, HDF cell line, Compound 774 at 3 μM): * (one star (*) represents ≤25% change in expression)
ΔPSI (HDF) ([1]; gene ZNF680, exon e3, HDF cells, 3 μM): * (one star (*) represents ≤25% change in expression)
